{
  "source": "ChEMBL document CHEMBL5375942",
  "about": "“Discovery of a Potent Chloroacetamide GPX4 Inhibitor with Bioavailability to Enable Target Engagement in Mice, a Potential Tool Compound for Inducing Ferroptosis In Vivo” (J Med Chem, 2023)",
  "key": {"[1]": {"test": "Metabolic stability in mouse liver microsomes assessed as unbound intrinsic clearance", "type": "ADME, Microsome"}, "[2]": {"test": "Unbound fraction in human plasma", "type": "ADME, cell-free"}, "[3]": {"test": "Metabolic stability in human liver microsomes assessed as unbound intrinsic clearance", "type": "ADME, Microsome"}, "[4]": {"test": "Stability in mouse plasma assessed as half life", "type": "ADME, cell-free"}, "NCI-H1703 [5]": {"tested_on": "NCI-H1703", "test": "Induction of ferroptosis in human NCI-H1703 cells assessed as cell viability incubated for 72 hrs in presence of ferrostatin-1 by CellTiter-Glo luminescent cell viability assay", "type": "functional, cell-based", "conditions": "NCI-H1703, 72 h"}, "[6]": {"test": "Stability in human plasma assessed as half life", "type": "ADME, cell-free"}, "NCI-H1703 [7]": {"tested_on": "NCI-H1703", "test": "Induction of ferroptosis in human NCI-H1703 cells assessed as cell viability incubated for 72 hrs by CellTiter-Glo luminescent cell viability assay", "type": "functional, cell-based", "conditions": "NCI-H1703, 72 h"}, "[8]": {"molecular_target": "Phospholipid hydroperoxide glutathione peroxidase GPX4 (Mus musculus) (UniProt O70325)", "sequence (O70325 whole entry)": "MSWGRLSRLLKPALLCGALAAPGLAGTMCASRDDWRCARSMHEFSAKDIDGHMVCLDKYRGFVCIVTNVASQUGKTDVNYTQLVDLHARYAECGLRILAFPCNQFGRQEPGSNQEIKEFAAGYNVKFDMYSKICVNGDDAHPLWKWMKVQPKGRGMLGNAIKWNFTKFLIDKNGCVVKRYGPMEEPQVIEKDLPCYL", "test": "Target engagement at GPX4 in mouse 4T1 cells assessed as mass change between covalently bound protein and unbound protein at 0.01 to 1 ug/ml measured after 2 hrs by Western blot analysis", "type": "cell-based", "conditions": "dose 0.01-1 µg/ml"}, "[9]": {"test": "Unbound fraction in mouse plasma", "type": "ADME, cell-free"}, "[10]": {"test": "Aqueous solubility of the compound at pH 7", "type": "physicochemical"}},
  "note": "pEC50: −log10 of the molar value. Active and inactive are the calls of the source. No cut-off for these calls is given here.",
  "data": [
    {"smiles": "CC(C)OC(=O)[C@H]1Cc2c([nH]c3ccccc23)[C@H](c2ccccc2)N1C(=O)CCl", "values": [
      {"measurement": "CL free", "setting": "[1]", "result": 5810, "unit": "mL/min/kg"},
      {"measurement": "fraction unbound", "setting": "[2]", "result": 0.011},
      {"measurement": "CL free", "setting": "[3]", "result": 505, "unit": "mL/min/kg"},
      {"measurement": "half-life", "setting": "[4]", "result": 2.77, "unit": "h"},
      {"measurement": "pEC50", "setting": "NCI-H1703 [5]", "result": "< 5.00"},
      {"measurement": "half-life", "setting": "[6]", "result": 6.18, "unit": "h"},
      {"measurement": "pEC50", "setting": "NCI-H1703 [7]", "result": 6.58}
    ]},
    {"smiles": "Cc1noc([C@H]2Cc3c([nH]c4ccccc34)[C@H](c3ccc(S(C)(=O)=O)cc3)N2C(=O)CCl)n1", "values": [
      {"measurement": "CL free", "setting": "[1]", "result": 243, "unit": "mL/min/kg"},
      {"measurement": "CL free", "setting": "[3]", "result": 31.7, "unit": "mL/min/kg"},
      {"measurement": "half-life", "setting": "[4]", "result": 1.85, "unit": "h"},
      {"measurement": "pEC50", "setting": "NCI-H1703 [5]", "result": 5.63},
      {"measurement": "half-life", "setting": "[6]", "result": 2.92, "unit": "h"},
      {"measurement": "pEC50", "setting": "NCI-H1703 [7]", "result": 7.43}
    ]},
    {"smiles": "CN(C)C(=O)[C@H]1Cc2c([nH]c3ccccc23)[C@H](c2ccccc2)N1C(=O)CCl", "values": [
      {"measurement": "pEC50", "setting": "NCI-H1703 [5]", "result": 5.43},
      {"measurement": "pEC50", "setting": "NCI-H1703 [7]", "result": 6.13}
    ]},
    {"smiles": "COC(=O)c1ccc([C@@H]2c3[nH]c4ccccc4c3C[C@H](C(=O)OC)N2C(=O)CCl)cc1", "values": [
      {"measurement": "Activity", "setting": "[8]", "result": "Active"}
    ]},
    {"smiles": "COC(=O)[C@H]1Cc2c([nH]c3ccccc23)[C@H](C2CCOCC2)N1C(=O)CCl", "values": [
      {"measurement": "fraction unbound", "setting": "[9]", "result": 0.24},
      {"measurement": "CL free", "setting": "[1]", "result": 353, "unit": "mL/min/kg"},
      {"measurement": "fraction unbound", "setting": "[2]", "result": 0.31},
      {"measurement": "CL free", "setting": "[3]", "result": 33, "unit": "mL/min/kg"},
      {"measurement": "pEC50", "setting": "NCI-H1703 [5]", "result": "< 5.00"},
      {"measurement": "pEC50", "setting": "NCI-H1703 [7]", "result": 5.50}
    ]},
    {"smiles": "COC(=O)[C@H]1Cc2c([nH]c3ccccc23)[C@H](c2ccc(S(C)(=O)=O)cn2)N1C(=O)CCl", "values": [
      {"measurement": "CL free", "setting": "[1]", "result": 348, "unit": "mL/min/kg"},
      {"measurement": "CL free", "setting": "[3]", "result": 35, "unit": "mL/min/kg"},
      {"measurement": "half-life", "setting": "[4]", "result": 1.33, "unit": "h"},
      {"measurement": "pEC50", "setting": "NCI-H1703 [5]", "result": "< 5.00"},
      {"measurement": "half-life", "setting": "[6]", "result": 4.03, "unit": "h"},
      {"measurement": "pEC50", "setting": "NCI-H1703 [7]", "result": 6.01}
    ]},
    {"smiles": "COC(=O)[C@H]1Cc2c([nH]c3ccccc23)[C@H](c2ccc(S(C)(=O)=O)nc2)N1C(=O)CCl", "values": [
      {"measurement": "solubility", "setting": "[10]", "result": "> 200", "unit": "µM"},
      {"measurement": "CL free", "setting": "[1]", "result": 235, "unit": "mL/min/kg"},
      {"measurement": "CL free", "setting": "[3]", "result": 28.3, "unit": "mL/min/kg"},
      {"measurement": "half-life", "setting": "[4]", "result": 2.77, "unit": "h"},
      {"measurement": "pEC50", "setting": "NCI-H1703 [5]", "result": 5.61},
      {"measurement": "half-life", "setting": "[6]", "result": 3.33, "unit": "h"},
      {"measurement": "pEC50", "setting": "NCI-H1703 [7]", "result": 6.93}
    ]},
    {"smiles": "C=CC(=O)N1[C@@H](c2ccccc2)c2[nH]c3ccccc3c2C[C@@H]1C(=O)OC", "values": [
      {"measurement": "CL free", "setting": "[1]", "result": 905, "unit": "mL/min/kg"},
      {"measurement": "CL free", "setting": "[3]", "result": 76.7, "unit": "mL/min/kg"},
      {"measurement": "half-life", "setting": "[4]", "result": 1.05, "unit": "h"},
      {"measurement": "half-life", "setting": "[6]", "result": 0.933, "unit": "h"},
      {"measurement": "pEC50", "setting": "NCI-H1703 [7]", "result": "< 5.00"}
    ]},
    {"smiles": "COC(=O)[C@H]1Cc2c([nH]c3ccccc23)[C@H](c2cccc(S(C)(=O)=O)c2)N1C(=O)CCl", "values": [
      {"measurement": "CL free", "setting": "[1]", "result": 563, "unit": "mL/min/kg"},
      {"measurement": "CL free", "setting": "[3]", "result": 45, "unit": "mL/min/kg"},
      {"measurement": "half-life", "setting": "[4]", "result": 0.167, "unit": "h"},
      {"measurement": "pEC50", "setting": "NCI-H1703 [5]", "result": 5.25},
      {"measurement": "half-life", "setting": "[6]", "result": 4.23, "unit": "h"},
      {"measurement": "pEC50", "setting": "NCI-H1703 [7]", "result": 6.24}
    ]},
    {"smiles": "COC(=O)[C@H]1Cc2c([nH]c3ccccc23)C(c2ccc(F)cc2C(F)(F)F)N1C(=O)CCl", "note": "(single isomer, unassigned)", "values": [
      {"measurement": "pEC50", "setting": "NCI-H1703 [5]", "result": "< 5.00"},
      {"measurement": "pEC50", "setting": "NCI-H1703 [7]", "result": 7.19}
    ]},
    {"smiles": "COC(=O)[C@H]1Cc2c([nH]c3ccccc23)[C@H](c2ccc(OC(F)(F)F)cc2)N1C(=O)CCl", "values": [
      {"measurement": "pEC50", "setting": "NCI-H1703 [5]", "result": 5.37},
      {"measurement": "pEC50", "setting": "NCI-H1703 [7]", "result": 7.12}
    ]},
    {"smiles": "COC(=O)[C@H]1Cc2c([nH]c3ccccc23)[C@H](c2ccc(F)cc2F)N1C(=O)CCl", "values": [
      {"measurement": "pEC50", "setting": "NCI-H1703 [5]", "result": 5.40},
      {"measurement": "pEC50", "setting": "NCI-H1703 [7]", "result": 6.97}
    ]},
    {"smiles": "COC(=O)[C@H]1Cc2c([nH]c3ccccc23)[C@H](Cc2ccccc2)N1C(=O)CCl", "values": [
      {"measurement": "CL free", "setting": "[1]", "result": 4725, "unit": "mL/min/kg"},
      {"measurement": "fraction unbound", "setting": "[2]", "result": 0.026},
      {"measurement": "CL free", "setting": "[3]", "result": 477, "unit": "mL/min/kg"},
      {"measurement": "half-life", "setting": "[4]", "result": 2.7, "unit": "h"},
      {"measurement": "pEC50", "setting": "NCI-H1703 [5]", "result": "< 5.00"},
      {"measurement": "half-life", "setting": "[6]", "result": 6.1, "unit": "h"},
      {"measurement": "pEC50", "setting": "NCI-H1703 [7]", "result": 6.01}
    ]}
  ]
}
